# Results taken from US10166177B2, “Silk protein fragment compositions and articles manufactured therefrom” (Silk, Inc., priority 2013, dated 2019).
# Tests used:
# Format in all cases: physicochemical
# [1] = Gel formation with vitamin C derivatives in 2% silk solution; conditions: 100 mg of vitamin C derivative in 15 mL of 2% silk solution
# Protocol: The Tables in FIGS. 89A-89B summarize embodiments of gels of the present disclosure. Ascorbic acid-2-glucoside was the most successful vitamin C derivative at gel formation with gel being formed in a 2% silk solution in 3 days. […] In all cases 100 mg of vitamin C derivative was mixed in 15 mL of 2% silk solution, and all gels had the same appearance as gels created with ascorbic acid.
# Gels were also cast with combinations of two vitamin C options. In each case, at least one of the vitamin C options was known to cause gelation (L-ascorbic acid or ascorbic acid-2-glucoside). All combination gels were able to gel at 1% total vitamin C additive concentration. […] Without wishing to be bound by theory, it appears there is a relationship between vitamin C concentration, silk concentration, and gelation. An increase in vitamin C at a given concentration of silk will result in a longer time to gelation or inhibit gelation. This may be due to the vitamin C molecule physically blocking interaction between silk protein fragments or cross-linking of silk protein. Modification to pH may allow additional concentrations of vitamin C and derivatives thereof to be added.
# [2] = Dissolution of vitamin C derivative in aqueous silk solution
# Description: Ascorbyl tetraisopalmitate is a highly viscous, oil soluble liquid that might need the help of an emulsifier to possible dissolve in aqueous silk solution.
# [3] = HPLC chromatograms of vitamin C samples (degradation products); conditions: after 1 hour at ambient conditions without chemical stabilization
# Protocol: FIGS. 36A and 36B show HPLC chromatograms from samples comprising vitamin C. […] No degradation products were visible.
# FIGS. 36A and 36B show two HPLC chromatograms from samples comprising vitamin C. […] No degradation products were visible. FIG. 59 is a table summarizing the vitamin C concentration in silk protein fragment-films (2% silk films air dried at RT) of the present disclosure. In FIG. 59 processing conditions included 100° C. extraction for 20 min, RT rinse, LiBr in 60° C. oven for 4-6 hours. FIG. 60 is a table summarizing the stability of vitamin C in chemically stabilized solutions. FIGS. 89A-89B are tables summarizing vitamin C stability in SPF gels without chemical stabilizers as compared to chemically stabilized vitamin C in competitive anti-aging skincare products. […] Without wishing to be bound by theory, it appears there is a relationship between vitamin C concentration, silk concentration, and gelation. An increase in vitamin C at a given concentration of silk will result in a longer time to gelation or inhibit gelation. This may be due to the vitamin C molecule physically blocking interaction between silk protein fragments or cross-linking of silk protein.
SMILES,time to gel formation [1],further results
O=C1O[C@H]([C@@H](O)CO)C(O)=C1O[C@H]1O[C@H](CO)[C@@H](O)[C@H](O)[C@H]1O [Ascorbic acid-2-glucoside],3 days,
CCCCCCCCC(CCCCCC)C(=O)OC[C@H](OC(=O)C(CCCCCC)CCCCCCCC)[C@H]1OC(=O)C(OC(=O)C(CCCCCC)CCCCCCCC)=C1OC(=O)C(CCCCCC)CCCCCCCC (some centres unmarked) [Ascorbyl tetraisopalmitate],,ability to dissolve or be dispersed in aqueous silk solution [2]: unable to dissolve or be dispersed
"O=C1O[C@H]([C@@H](O)CO)C([O-])=C1OP(=O)([O-])[O-].[Na+].[Na+].[Na+] [Sodium Ascorbyl Phosphate (Aromantic), Sodium Ascorbyl Phosphate]",failed to create a gel,
"O=C1O[C@H]([C@@H](O)CO)C([O-])=C1OP(=O)([O-])[O-].[Na+].[Na+].[Na+] [Sodium ascorbyl phosphate from DSM, Sodium ascorbyl phosphate]",28 days,
"O=C1O[C@H]([C@@H](O)CO)C(O)=C1O [vitamin C, L-ascorbic acid]",,vitamin C degradation products (HPLC) [3]: degradation products are visible
